Measurements reported in US8034796B2, “Glucosamine and glucosamine/anti-inflammatory mutual prodrugs, compositions, and methods” (The University of Georgia Research Foundation, Inc., priority 2004, dated 2011).
Where two headings read alike, the source gives them in different places.

What was measured:
[1] = cited from earlier work
[2] = format: in vitro ADME, snake
Experimental: In vitro transport (diffusion) was evaluated by Franz cell diffusion experiments using shed snakeskin. Shed snakeskin is widely recognized as a sufficient model membrane to human skin for preliminary permeability studies due to the similarity in its composition to the human stratum corneum.
The shed snakeskin was hydrated in 0.1% aqueous sodium azide solution for 48 hours at room temperature. The skins were mounted to three Franz receptor cells filled with 0.1 M pH7 phosphate buffer. The receptor solution was maintained at 37° C. and stirred with a magnetic stirrer. The donor cells were clamped to each receptor cell, with the skin mounted between the receptor and donor cells, and the donor cells were filled with 100 milligrams (mg) each of glucosamine HCl (e.g., cell 1), N-acetyl glucosamine (e.g., cell 2), and glucosamine pentaacetyl (e.g., cell 3) in a 1 milliliter (ml) DMSO solution. The skin surface exposed to diffusion was 2.54 cm^2 (1.8 cm diameter) and the receptor cell volume was 6 cm^3. The system was allowed to equilibrate for two hours before samples were taken.
Twenty microliter (μl) samples of receptor solution were taken at 5, 10, 20, 40, 80, 160, and 240 minute intervals and replaced with fresh buffer. A ten μl aliquot of each sample was analyzed by high performance liquid chromatography with pulsed electrochemical detection.

[3] = cited from earlier work; remark: listed apart in the source
[4] = literature; cited from earlier work
[5] = Solubility measurements of NAG; format: physicochemical
Experimental: The solutions were centrifuged for 5 min at 9000 rev/min and the supernatant filtered with cellulose acetate membrane filters (0.45 μm pore size) (Dionex, Sunnyvale Calif.). The NAG concentration in each filtrate was determined by HPAE-PAD after the appropriate dilution.

[6] = In-vitro membrane permeation of NAG from lecithin suspensions and pluronic organo-gel formulations across shed snakeskin; format: in vitro ADME, snake
Experimental: Twenty percent poloxamer 407 (PLURONIC F127; Polyethylene-Polypropylene Glycol) gels were made by standard methods e.g. dissolving the poloxamer into cold water under refrigeration for 24 hours to produce the pluronic gel phase. NAG was incorporated into the pluronic gel phase. The final formulations were prepared via the emulsification of the select organic phase with the pluronic gel phase using luer-lock connected syringes.
Shed snakeskins were used as the model membrane for these permeation studies using the NAG semi-solid gel formulations. The skins were hydrated in 0.1% aqueous sodium azide solution at room temperature for 48 hrs. Franz-cell diffusions experiments were carried out. In general the receptor cell was filled with a 7.4 pH 0.1 M phosphate buffer. The receptor solution was maintained at 37° C. and stirred with a magnetic stirrer. The snakeskins were mounted between the receptor and donor cells. The surface exposed to diffusion was 2.54 cm^2 (diameter 1.8 cm) and the receptor cell volume was 6 cm^3. The donor cell was covered with plastic film. The system was allowed to equilibrate at 37° C. for two hours before each experiment. The donor cells were filled with a 5 ml of the semisolid NAG pluronic-organo-gel formulation. Samples (N=3) were taken at intervals over a 48-hour period, 200-μl samples of receptor solutions were taken and replaced with fresh buffer; experiments were conducted in triplicate. The amounts of NAG that permeated through the snakeskin were determined by HPAE-PAD.
Steady state flux (Jss) for NAG (mg/cm^2/h) was calculated from its increasing amount in the receptor medium (Bach et al., Eur. J. Pharm. and Biopharm., 46:1-13 (1998)). NAG's permeability coefficient (kp) in cm/h was calculated from known physiochemical parameters (Hadgraft et al., “Feasibility Assessment in Topical and Transdermal Delivery: Mathematical Models and In Vitro Studies,” in Transdermal Drug Delivery, 2nd Ed. Marcel Dekker, Inc., pages 1-23 (2003)). Lag time (tlag) was determined graphically from the cumulative amount of drug released per unit area (mg/cm^2) versus time (h) plots. A square root of time (t^1/2) versus cumulative amount of drug released per unit area (mg/cm^2) was obtained to monitor NAG in vitro release rate (mg/cm^2) (Guidance for Industry: SUPAC-SS Semisolid Dosage Forms. Scale-up and Postapproval Changes Chemistry, Manufacturing, and Control; In Vitro Release Testing and In Vivo Bioequivalence Documentation. US Department of Health and Human Services, Food and Drug Administration, May 1997).

[7] = In-vitro membrane permeation of NAG through shed snakeskin (Franz cell; enhancers, DMSO, ethanol/buffer); format: in vitro ADME, snake
From the text: Shed snakeskins were used as a model membrane for permeation studies using the NAG suspensions in known membrane permeation enhancers; ethanol, oleic acid, isopropyl myristate, and isopropyl palmitate; saturated solutions of NAG in water and in phosphate buffer; as well as in a saturated DMSO solution and phosphate buffer (pH 5.5) containing ethanol at 2%, 5%, 10%, 25%, and 50% solutions.
The skins were hydrated in 0.1% aqueous sodium azide solution at room temperature for 48 hrs. Franz-cell diffusions experiments were carried out. In general the receptor cell was filled with 7.4 pH 0.1 M phosphate buffer and the donor cell filled with a solution or suspension. For the phosphate buffer (pH 5.5) containing ethanol at 2%, 5%, 10%, 25%, and 50% solutions in the donor phase, the receptor phase consisted of phosphate buffer (pH 5.5, 0.1 M). The receptor solution was maintained at 37° C. and stirred with a magnetic stirrer.
The snake skins were mounted between the receptor and donor cells. The surface exposed to diffusion was 2.54 cm^2 (diameter 1.8 cm) and the receptor cell volume was 6 cm^3. The donor cell was covered with plastic film. The system was allowed to equilibrate at 37° C. for two hours before each experiment. To the donor cells, 5 ml of the NAG-enhancer suspension or solution was added. Samples were taken at intervals over a 24-hour period, 200-μl samples of receptor solutions were taken and replaced with fresh buffer; experiments were conducted in triplicate. The amounts of NAG that permeated through the snakeskin were determined by HPAE-PAD.
Steady state flux (Jss) for NAG (mg/cm^2/h) was calculated from its increasing amount in the receptor medium (Bach et al., Eur. J. Pharm. Biopharm, 46:1-13 (1998)). NAG's permeability coefficient (kp) in cm/h was calculated from known physiochemical parameters, (Hadgraft et al., “Feasibility Assessment in Topical and Transdermal Delivery: Mathematical Models and In Vitro Studies,” in Transdermal Drug Delivery. 2nd Ed. Marcel Dekker, Inc., pages 1-23 (2003)). Lag time (tlag) was determined graphically from the cumulative amount of drug released per unit area (mg/cm^2) versus time plots. A square root of time (t^1/2) versus cumulative amount of drug released per unit area (mg/cm^2) was obtained to monitor NAG in vitro release rate (mg/cm^2), (Guidance for Industry: SUPAC-SS Semisolid Dosage Forms. Scale-up and Postapproval Changes Chemistry, Manufacturing, and Control; In Vitro Release Testing and In Vivo Bioequivalence Documentation. US Department of Health and Human Services, Food and Drug Administration, Center for. Drug Evaluation and Research, May 1997).

[8] = cited from earlier work; remark: listed apart in the source
[9] = Oil/water partition coefficient, n-hexane/phosphate buffer; format: physicochemical; details: 37° C., 24 hours
Experimental: The oil/water partition coefficient for NAG was determined using n-hexane/phosphate buffer (pH 5.5 6, 6.73, and 7.4, 0.1 M) and n-hexane/water (Bemacki et al., J. Supramolecular Structure, 7:235-250 (1977)). In each case 5 ml of n-hexane was mixed with aqueous solutions containing NAG and shaken at 37° C. for 24 hours. The mixture was afterwards centrifuged and the organic and aqueous phases separated. The NAG concentration in the filtrates was determined by HPAE-PAD after the appropriate dilution.

[10] = lecithin-vitamin E (1:1) suspension
[11] = phosphate buffer (pH 5.5) with 2% ethanol
[12] = phosphate buffer (pH 5.5) with 5% ethanol
[13] = phosphate buffer (pH 5.5) with 10% ethanol
[14] = phosphate buffer (pH 5.5) with 25% ethanol
[15] = phosphate buffer (pH 5.5) with 50% ethanol
[16] = saturated DMSO donor, pH 7.4 phosphate buffer receptor

CN1CC[C@]23c4c5ccc(O)c4O[C@H]2C(=O)CC[C@@]3(O)[C@H]1C5 [oxymorphone]
octanol-water partition coefficient ([1]; pH 7.4): 0.0

Cl.N[C@H]1C(O)O[C@H](CO)[C@@H](O)[C@@H]1O (stereo partly shown) [glucosamine HCl, Glucosamine HCl, reference compound]
transport across shed snake skin [2]: not transported

CCC(NC(C)C)C(O)c1ccc(O)c2[nH]c(=O)ccc12 (stereo not shown) [procaterol]
octanol-water partition coefficient ([1]; pH 7.7): −0.37

N[C@H]1C(O)O[C@H](CO)[C@@H](O)[C@@H]1O (stereo partly shown) [glucosamine]
bioavailability ([3]; oral administration): 12-13%
oral dose absorbed and excreted ([3]; oral dose): approximately 87%
oral dose reaching osteoarthritic joints ([3]; oral dose): < 1%
oral dose widely distributed in the body ([3]; oral dose): < 13%

CC(C)Cc1ccc(C(C)C(=O)O)cc1 (stereo not shown) [ibuprofen]
transport across shed snake skin [4]: transported

CC(=O)N[C@H]1C(O)O[C@H](CO)[C@@H](O)[C@@H]1O (stereo partly drawn) [NAG, N-acetyl-D-glucosamine]
transport across shed snake skin [2]: highly transported
transport (receptor cell volume analyzed) ([2]; snake, 100 mg/ml, pH 7): over 50%
octanol-water partition coefficient ([1]; pH 7.4): 0.017
solubility ([5]; ethanol): insignificantly soluble
solubility ([5]; phosphate buffer): highly soluble
transport in aqueous only vehicles ([6]; experiments not reported here): not transported
NAG transport from suspensions ([6]; lecithin-isopropyl palmitate and vitamin E suspensions (100 mg/ml)): Negligible (below the limit of detection)
Release rate [6, 10]: 13.71 μg/cm^2
steady state flux Jss [6, 10]: 4.23 μg/cm^2/h
Papp ([6]; snake, pH 7.4, lecithin-vitamin E (1:1) suspension, read-out: permeability coefficient kp (converted)): 1.39 ×10⁻⁶ cm/s
NAG transport from suspensions of membrane permeability enhancers ([7]; ethanol, oleic acid, isopropyl myristate and isopropyl palmitate suspensions): Negligible
In Vitro release rate [7, 11]: 286.03 μg/cm^2
Jss [7, 11]: 112.61 mg/cm^2/h
In Vitro release rate [7, 12]: 303.61 μg/cm^2
Jss [7, 12]: 119.53 mg/cm^2/h
In Vitro release rate [7, 13]: 537.49 μg/cm^2
Jss [7, 13]: 211.61 mg/cm^2/h
In Vitro release rate [7, 14]: 523.06 μg/cm^2
Jss [7, 14]: 205.93 mg/cm^2/h
In Vitro release rate [7, 15]: 198.02 μg/cm^2
Jss [7, 15]: 77.96 mg/cm^2/h
In Vitro release rate [7, 16]: 186.64 mg/cm^2
Jss [7, 16]: 73.48 mg/cm^2/h
lag time ([7]; saturated DMSO solution): no lag time
in vitro release rate ([7]; saturated DMSO solution, FIG. 13): 73.48 μg/cm^2
Papp ([7]; snake, calculated from known physiochemical parameters, read-out: permeability coefficient kp (converted)): 203 ×10⁻⁶ cm/s
permeation from aqueous solutions ([7]; water or phosphate buffer solutions (pH 5.5, 6.0, 6.73, and 7.4; 0.1 M)): No permeation
pKa [8]: 6.73
partition coefficient n-hexane/pH 5.5 buffer [9]: 0.252
partition coefficient n-hexane/pH 6.0 buffer [9]: 0.194
partition coefficient n-hexane/pH 6.73 buffer [9]: 0.092
partition coefficient n-hexane/pH 7.4 buffer [9]: 0.091
